The source of these data is publication PMC6271890, “Synthesis and Antiproliferative Activity of Some Novel Triazole Derivatives from Dehydroabietic Acid” (Molecules, 2014).

Series [1] concerns normal lung fibroblasts (MRC-5). In words: Antiproliferative assay (MTT reduction), MRC-5 fibroblasts. It counts as cell-based, human. On the set-up: key to antiproliferative activity in words, MRC-5: IC50 values > 100 µM were considered inactive. Conditions: for IC50: Homo sapiens, MRC5, 72 h, MRC-5 normal lung fibroblasts, 3 days treatment, MTT, mean ± SD; for antiproliferative activity in words, MRC-5: MRC-5 fibroblasts. How it is done: (§1) All human cell lines used in this work were purchased from the American Type Culture Collection (ATCC, Manasas, VA, USA). […] All media were supplemented with 10% heat-inactivated FBS, 100 IU/mL penicillin and 100 µg/mL streptomycin. Cells were grown in a humidified incubator with 5% CO2 in air at 37 °C. For the antiproliferative assay, cells were plated at a density of 5 × 10^4 cells/mL. Cells were seeded in 96-well plates (100 µL/well). One day after seeding, cells were treated with medium containing the compounds at concentrations ranging from 0 up to 100 µM during 3 days. The compounds were dissolved in DMSO (1% final concentration) and complete medium. Untreated cells (medium containing 1% DMSO) were used as 100% viability controls. […] Each concentration was tested in sextuplicate and experiments were repeated 2 times. Cell viability was determined by means of the MTT reduction assay at the end of the incubation with the products. […] The software used was OriginPro 8.1 [23].
In general terms: Formazan colour is commonly taken as a measure of viable cells.

Series [2] has as its system gastric epithelial adenocarcinoma (AGS) cells. Put plainly: Antiproliferative assay (MTT reduction), AGS cells. The series is classed as cell-based, human. As to conditions: for IC50: Homo sapiens, 72 h, AGS gastric adenocarcinoma cells, 3 days treatment, MTT, mean ± SD. The arrangement: key to antiproliferative activity in words, AGS: IC50 values > 100 µM were considered inactive. How it is done: (§2) All human cell lines used in this work were purchased from the American Type Culture Collection (ATCC, Manasas, VA, USA). Normal lung MRC-5 fibroblasts (CCL-171), SK-MES-1 lung cancer cells (HTB-58) and J82 bladder carcinoma cells (HTB-1) were grown as monolayers in minimum essential Eagle medium (MEM) with Earles’s salts, 2 mM L-glutamine and 1.5 g/L sodium bicarbonate. Gastric adenocarcinoma AGS cells (CRL-1739) were grown as monolayers in Ham F-12 medium containing 1 mM L-glutamine and 1.5 g/L sodium bicarbonate. All media were supplemented with 10% heat-inactivated FBS, 100 IU/mL penicillin and 100 µg/mL streptomycin. Cells were grown in a humidified incubator with 5% CO2 in air at 37 °C. For the antiproliferative assay, cells were plated at a density of 5 × 10^4 cells/mL. Cells were seeded in 96-well plates (100 µL/well). One day after seeding, cells were treated with medium containing the compounds at concentrations ranging from 0 up to 100 µM during 3 days. The compounds were dissolved in DMSO (1% final concentration) and complete medium. Untreated cells (medium containing 1% DMSO) were used as 100% viability controls. […] Each concentration was tested in sextuplicate and experiments were repeated 2 times. Cell viability was determined by means of the MTT reduction assay at the end of the incubation with the products. The results were transformed to percentage of controls and the IC50 value was obtained adjusting the dose-response curve to a sigmoidal model. The software used was OriginPro 8.1 [23].

Series [3] concerns lung cancer (SK-MES-1) cells. Put plainly: Antiproliferative assay (MTT reduction), SK-MES-1 cells. The series is classed as cell-based, human. Conditions: for IC50: Homo sapiens, 72 h, SK-MES-1 lung cancer cells, 3 days treatment, MTT, mean ± SD; for antiproliferative activity in words, SK-MES-1: SK-MES-1 cells. How it is done:
as §1

Series [4] deals with bladder carcinoma (J82) cells. Put plainly: Antiproliferative assay (MTT reduction), J82 cells. It counts as cell-based, human. The arrangement: key to antiproliferative activity in words, J82: IC50 values > 100 µM were considered inactive. As to conditions: for IC50: Homo sapiens, 72 h, J82 bladder carcinoma cells, 3 days treatment, MTT, mean ± SD. How it is done:
as §2

In series [5] the test system is MCF-7, Hela and liver cancer 7721 cells. The arrangement: method as in PMID 21345546. Conditions: range over MCF-7, Hela and liver cancer 7721 cells; read-out: IC50 values (cytotoxicity); cited from earlier work.

Regarding `CC(C)c1ccc2c(c1)CCC1[C@](C)(COC(=O)CCc3cn(CSc4ccccc4)nn3)CCC[C@]21C` (some centres unmarked) [Compound 9, 18-(3-(((1-Phenylthio)methyl)-1H-1,2,3-triazol-4-yl)propanoyloxy)-8,11,13-abietatriene], the concentration for half-maximal inhibition (IC50) in series [1] stood at 73.3 ± 3.7 µM; in series [2], 47.7 ± 2.9 µM; in series [3] it was 43.6 ± 2.9 µM; in series [4] it was 49.9 ± 2.9 µM.

Take `Cc1ccc(S(=O)(=O)n2cc(CCC(=O)OC[C@]3(C)CCC[C@]4(C)c5ccc(C(C)C)cc5CCC34)nn2)cc1` (some centres unmarked) [Compound 15, 18-(3-(1-(4-Toluenesulfonyl)-1H-1,2,3-triazol-4-yl)propanoyloxy)-8,11,13-abietatriene]: the IC50 was 82.9 ± 4.5 µM in series [1], 74.9 ± 3.7 µM in series [2], 84.4 ± 5.1 µM in series [3] and over 100 µM in series [4].

With `CN(C)CCN1C(=O)c2cccc3cc(N)cc(c23)C1=O` [amonafide], in series [5], the half-inhibitory concentration (IC50) was 1.68 to 4.27 µM.

With `CC(C)c1ccc2c(c1)CCC1[C@](C)(COC(=O)CCCCc3cn(-c4cccc(Cl)c4)nn3)CCC[C@]21C` (some centres unmarked) [Compound 14, 18-(5-(1-(3-Chlorophenyl)-1H-1,2,3-triazol-4-yl)pentanoyloxy)-8,11,13-abietatriene], the IC50 in series [1], in series [2], in series [3] and in series [4] was over 100 µM throughout.

`COc1ccc(-n2cc(CCCCC(=O)OC[C@]3(C)CCC[C@]4(C)c5ccc(C(C)C)cc5CCC34)nn2)cc1` (some centres unmarked) [Compound 12, 18-(5-(1-(4-Anisidyl)-1H-1,2,3-triazol-4-yl)pentanoyloxy)-8,11,13-abietatriene]: the IC50 in series [1], in series [2], in series [3] and in series [4] was over 100 µM in each case.

Take `CC(C)c1ccc2c(c1)CCC1[C@](C)(C(=O)OCc3cn(-c4ccccc4)nn3)CCC[C@]21C` (some centres unmarked) [Compound 1, 18-((1-Phenyl-1H-1,2,3-triazol-4-yl)methyl)-8,11,13-abietatrienoate]: the IC50 in series [1] was found to be 85.8 ± 4.6 µM; in series [2], 79.9 ± 4.8 µM; in series [3], 77.3 ± 4.7 µM; in series [4], 46.3 ± 2.3 µM.

With `CC(C)c1ccc2c(c1)CCC1[C@](C)(COC(=O)CCc3cn(-c4cccc(Cl)c4)nn3)CCC[C@]21C` (some centres unmarked) [Compound 13, 18-(3-(1-(3-Chlorophenyl)-1H-1,2,3-triazol-4-yl)propanoyloxy)-8,11,13-abietatriene], the half-maximal inhibitory concentration (IC50) in series [1], in series [2], in series [3] and in series [4] was over 100 µM throughout.

As to `CC(C)c1ccc2c(c1)CCC1[C@](C)(C(=O)OCCc3cn(-c4ccccc4)nn3)CCC[C@]21C` (some centres unmarked) [Compound 2, 18-(2-(1-Phenyl-1H-1,2,3-triazol-4-yl)ethyl)-8,11,13-abietatrienoate], the IC50 in series [1] was over 100 µM; in series [2], 90.2 ± 5.4 µM; in series [3], over 100 µM; in series [4] it was 76.3 ± 5.9 µM. The “antiproliferative activity in words, MRC-5” value in series [1] is “inactive”. In addition, the “antiproliferative activity in words, SK-MES-1” value in series [3] was “inactive”.

Turning to `Cc1ccc(S(=O)(=O)n2cc(CCCCC(=O)OC[C@]3(C)CCC[C@]4(C)c5ccc(C(C)C)cc5CCC34)nn2)cc1` (some centres unmarked) [Compound 16, 18-(5-(1-(4-Toluenesulfonyl)-1H-1,2,3-triazol-4-yl)pentanoyloxy)-8,11,13-abietatriene], the IC50 in series [1] came out at 68.8 ± 4.5 µM; in series [2], 56.9 ± 3.3 µM; in series [3], 74.2 ± 5.4 µM; in series [4], 75 ± 6.1 µM.

As to `CC(C)c1ccc2c(c1)CCC1[C@](C)(COC(=O)CCCCc3cn(CSc4ccccc4)nn3)CCC[C@]21C` (some centres unmarked) [Compound 10], the IC50 was over 100 µM in series [1], 58.9 ± 3.4 µM in series [2], 42.7 ± 2.9 µM in series [3] and 33.9 ± 1.7 µM in series [4].

Take `CC(C)c1ccc2c(c1)CCC1[C@](C)(COC(=O)CCCCc3cn(-c4ccccc4)nn3)CCC[C@]21C` (some centres unmarked) [Compound 6, 18-(5-(1-Phenyl-1H-1,2,3-triazol-4-yl)pentanoyloxy)-8,11,13-abietatriene]: the IC50 in series [1], in series [2], in series [3] and in series [4] was over 100 µM each time. Besides, the “antiproliferative activity in words, MRC-5” value in series [1] was “inactive”. For the same molecule, the “antiproliferative activity in words, AGS” value in series [2] (AGS cells) was “inactive”. Besides, the “antiproliferative activity in words, SK-MES-1” value in series [3] was “inactive”. In addition, the “antiproliferative activity in words, J82” value in series [4] (J82 cells) is “inactive”.

On to `CC(C)c1ccc2c(c1)CCC1[C@](C)(COC(=O)CCCCc3cn(Cc4ccccc4)nn3)CCC[C@]21C` (some centres unmarked) [Compound 8, 18-(5-(1-Benzyl-1H-1,2,3-triazol-4-yl)pentanoyloxy)-8,11,13-abietatriene], for which the concentration for half-maximal inhibition (IC50) in series [1] is over 100 µM; in series [2], 35.9 ± 1.7 µM; in series [3], 37 ± 2.6 µM; in series [4], 26.8 ± 1.8 µM. Moreover, the “antiproliferative activity in words, MRC-5” value in series [1] was “inactive”.

As for `CC(C)c1ccc2c(c1)CCC1[C@](C)(COC(=O)CCc3cn(Cc4ccccc4)nn3)CCC[C@]21C` (some centres unmarked) [Compound 7, 18-(3-(1-Benzyl-1H-1,2,3-triazol-4-yl)propanoyloxy)-8,11,13-abietatriene], the IC50 in series [1] was over 100 µM; in series [2] it was 36.7 ± 1.5 µM; in series [3], 39.7 ± 2.7 µM; in series [4] it was 25.6 ± 1.9 µM. Besides, the “antiproliferative activity in words, MRC-5” value in series [1] is “inactive”.

As to `CC(C)c1ccc2c(c1)CCC1[C@](C)(C(=O)OCc3cn(CSc4ccccc4)nn3)CCC[C@]21C` (some centres unmarked) [Compound 3, 18-((((1-Phenylthio)methyl)-1H-1,2,3-triazol-4-yl)methyl)-8,11,13-abietatrienoate], the IC50 in series [1] is over 100 µM; in series [2], 94.4 ± 5.4 µM; in series [3], over 100 µM; in series [4] it was over 100 µM. In addition, in series [1], the “antiproliferative activity in words, MRC-5” value is “inactive”. Also, the “antiproliferative activity in words, SK-MES-1” value in series [3] was “inactive”.

In the case of `COc1ccc(-n2cc(CCC(=O)OC[C@]3(C)CCC[C@]4(C)c5ccc(C(C)C)cc5CCC34)nn2)cc1` (some centres unmarked) [Compound 11, 18-(3-(1-(4-Anisidyl)-1H-1,2,3-triazol-4-yl)propanoyloxy)-8,11,13-abietatriene], the half-maximal inhibitory concentration (IC50) in series [1], in series [2], in series [3] and in series [4] was over 100 µM in each case.

Regarding `CC(C)c1ccc2c(c1)CCC1[C@](C)(COC(=O)CCc3cn(-c4ccccc4)nn3)CCC[C@]21C` (some centres unmarked) [Compound 5, 18-(3-(1-Phenyl-1H-1,2,3-triazol-4-yl)propanoyloxy)-8,11,13-abietatriene], the IC50 in series [1] is 17.1 ± 0.6 µM; in series [2], 44.5 ± 1.9 µM; in series [3] it was 6.1 ± 0.3 µM; in series [4] it was 83.3 ± 3.3 µM.

Take `CC(C)c1ccc2c(c1)CCC1[C@](C)(C(=O)OCCc3cn(CSc4ccccc4)nn3)CCC[C@]21C` (some centres unmarked) [Compound 4, 18-(2-(((1-Phenylthio)methyl)-1H-1,2,3-triazol-4-yl)ethyl)-8,11,13-abietatrienoate]: the IC50 in series [1] was 50.2 ± 3.1 µM; in series [2], 66 ± 4.4 µM; in series [3] it was 28.9 ± 2.1 µM; in series [4], 28.1 ± 1.7 µM.

Take `COc1cc([C@@H]2c3cc4c(cc3[C@@H](O[C@@H]3O[C@@H]5CO[C@@H](C)O[C@H]5[C@H](O)[C@H]3O)[C@H]3COC(=O)[C@H]23)OCO4)cc(OC)c1O` [Etoposide, reference compound]: the IC50 in series [2] came to 0.58 ± 0.02 µM; in series [4] it was 3.49 ± 0.16 µM.

By IC50 is commonly meant the point on the concentration scale where inhibition reaches its midpoint.
